The values below are quoted from earlier work in patent US20070237796A1, “Stable High Pl Hydrogel Compositions” (priority 2003, published 2007).

Molecules are shown by their SMILES. Read-outs that look alike come from different tables or passages of the source.

`OC[C@H]1O[C@@H]2O[C@H]3[C@H](O)[C@@H](O)[C@@H](O[C@H]4[C@H](O)[C@@H](O)[C@@H](O[C@H]5[C@H](O)[C@@H](O)[C@@H](O[C@H]6[C@H](O)[C@@H](O)[C@@H](O[C@H]7[C@H](O)[C@@H](O)[C@@H](O[C@H]8[C@H](O)[C@@H](O)[C@@H](O[C@H]9[C@H](O)[C@@H](O)[C@@H](O[C@H]1[C@H](O)[C@H]2O)O[C@@H]9CO)O[C@@H]8CO)O[C@@H]7CO)O[C@@H]6CO)O[C@@H]5CO)O[C@@H]4CO)O[C@@H]3CO` [γ-cyclodextrin]: for the setting “secondary OH”, the pKa was 12.05 (secondary OH).

For `O=C[C@H](O)[C@@H](O)[C@H](O)CO` [Xylose], the pKa is recorded as 12.15.

In the case of `OC[C@H]1O[C@@H](O[C@H]2[C@H](O)[C@@H](O)C(O)O[C@@H]2CO)[C@H](O)[C@@H](O)[C@H]1O` (stereo partly drawn) [Lactose], the pKa is on record as 11.98.

For `OC[C@H]1O[C@@H]2O[C@H]3[C@H](O)[C@@H](O)[C@@H](O[C@H]4[C@H](O)[C@@H](O)[C@@H](O[C@H]5[C@H](O)[C@@H](O)[C@@H](O[C@H]6[C@H](O)[C@@H](O)[C@@H](O[C@H]7[C@H](O)[C@@H](O)[C@@H](O[C@H]8[C@H](O)[C@@H](O)[C@@H](O[C@H]1[C@H](O)[C@H]2O)O[C@@H]8CO)O[C@@H]7CO)O[C@@H]6CO)O[C@@H]5CO)O[C@@H]4CO)O[C@@H]3CO` [β-cyclodextrin], for the setting “secondary OH”, the pKa was 12.20 (secondary OH).

Regarding `CO[C@H]1O[C@H](CO)[C@@H](O)[C@H](O)[C@H]1O` [α-Methyl glucoside], the pKa was 13.71.

Turning to `O=C[C@H](O)[C@@H](O)[C@@H](O)[C@H](O)CO` [Galactose], the pKa was 12.39.
